Assay results published in the NIST ThermoML archive (doi:10.1016/j.jct.2012.05.009).
Numbers after ± are expanded uncertainties.

Experiment: mn = molality of the nth substance listed, in mol/kg
Conditions: 101 kPa, Liquid, Vibrating tube method

CC(=O)CCCCn1c(=O)c2c(ncn2C)n(C)c1=O [3,7-dimethyl-1-(5-oxohexyl)-3,7-dihydro-1H-purine-2,6-dione] + O gave a mass density (293.15 K, m1 = 0.09736) of 1003.77 ± 0.036 kg/m3, a mass density (293.15 K, m1 = 0.0976) of 1003.77 ± 0.036 kg/m3 and a mass density (293.15 K, m1 = 0.09842) of 1003.81 ± 0.037 kg/m3. For the same compound, the mass density (293.15 K, m1 = 0.09851) was 1003.83 ± 0.037 kg/m3, the mass density (293.15 K, m1 = 0.1012) was 1003.97 ± 0.036 kg/m3 and the mass density (298.15 K, m1 = 0.09736) was 1002.51 ± 0.038 kg/m3. For the same compound, the mass density (298.15 K, m1 = 0.0976) was 1002.51 ± 0.036 kg/m3, the mass density (298.15 K, m1 = 0.09842) was 1002.55 ± 0.057 kg/m3 and the mass density (298.15 K, m1 = 0.09851) was 1002.57 ± 0.043 kg/m3. The mass density (298.15 K, m1 = 0.1012) was 1002.7 ± 0.036 kg/m3, the mass density (303.15 K, m1 = 0.09736) was 1001.02 ± 0.037 kg/m3 and the mass density (303.15 K, m1 = 0.0976) was 1001.02 ± 0.035 kg/m3. For the same compound, the mass density (303.15 K, m1 = 0.09842) was 1001.06 ± 0.054 kg/m3, the mass density (303.15 K, m1 = 0.09851) was 1001.08 ± 0.041 kg/m3 and the mass density (303.15 K, m1 = 0.1012) was 1001.21 ± 0.035 kg/m3. It also gave a mass density (308.15 K, m1 = 0.09736) of 999.319 ± 0.035 kg/m3, a mass density (308.15 K, m1 = 0.0976) of 999.32 ± 0.035 kg/m3 and a mass density (308.15 K, m1 = 0.09842) of 999.356 ± 0.037 kg/m3. It also gave a mass density (308.15 K, m1 = 0.09851) of 999.381 ± 0.037 kg/m3 and a mass density (308.15 K, m1 = 0.1012) of 999.508 ± 0.035 kg/m3.
